Source: patent publication US9782395B2, “2,4-thiazolidinedione derivatives in the treatment of central nervous system disorders” (MINORYX THERAPEUTICS S.L., priority 2014, dated 2017)
Read-outs that look alike come from different tables or passages of the source. Values belong to the molecule of their own block, whether it stands above or below them.

How the values were obtained:
[1] = Brain plasma ratio from AUC of plasma and brain profiles after single oral dose of Pioglitazone or MIV; format: in vivo, male C57BL/6 mice; conditions: male, C57BL/6, mouse, single oral 4.5 mg/kg of the compound itself, read-out: percentage brain-plasma ratio
Procedure: The brain plasma ratios of Pioglitazone and MIV and following oral dosing of a single administration of either Pioglitazone or M-IV both at 4.5 mg/kg in male C57BL/6 mice. […] The brain-plasma ratio was calculated based on the pharmacokinetics curves of plasma and brain concentration-time profiles calculated as area under the curves of Pioglitazone and following oral dosing of a single administration of either Pioglitazone or MIV both at 4.5 mg/kg in male C57BL/6 mice.

[2] = Brain plasma ratio at Cmax after single oral dose of Pioglitazone; format: in vivo, male C57BL/6 mice; conditions: male, C57BL/6, mouse, single oral Pioglitazone 4.5 mg/kg, parent and metabolites quantified, read-out: percentage brain plasma ratio
Procedure: The brain plasma ratios of Pioglitazone, MIV, MIII and MII following oral dosing of a single administration of Pioglitazone at 4.5 mg/kg in male C57BL/6 mice.
The brain-plasma ratio was calculated based on levels of Pioglitazone, MIV, MIII and MII in plasma and brain quantified at C max (maximal concentration) following oral dosing of a single administration of Pioglitazone at 4.5 mg/kg in male C57BL/6 mice.

[3] = diabetic preclinical models; cited from earlier work
[4] = tested on: X-linked adrenoleukodystrophy fibroblasts; test: X-ALD patient fibroblasts, cell survival (MTT); format: cell-based, human; conditions: at 3, M, vs non-treated, 24 hours
Procedure: Human control and X-linked adrenoleukodystrophy fibroblasts were obtained from Coriell (Candem, USA). Cells were grown in Dulbecco's modified Eagle medium containing 10% foetal bovine serum, 100 U/ml penicillin and […], at 37° C. in humidified 95% air/5% CO2, to 80-90% confluence. To perform our experiments, Dulbecco's modified Eagle medium without D-glucose, pyruvate or L-glutamine was used. Cells were cultured in this medium supplemented with 1 g/l of glucose or 1 g/l of galactose and 10% foetal bovine serum for 24 hours incubated with increasing doses of MIV (3, 10 and 30 μM).
The determination of MTT was performed as described by Mosmann J. Immunol. Methods 1983, 65, 55-63 and by Hansen J. Immunol. Methods 1989; 119, 203-210. This method is based on the ability of viable but not dead cells to convert the tetrazolium salt (MTT) to colored formazan.
For the determination of ATP levels, 2×10^4 cells/well were seeded in 96 well cell culture plate in complete medium. After 16-18 h cells, were lysed in 20 μl lysis buffer and 10 μl of lysate was used to measure ATP levels using ATP determination Kit (Molecular Probes, Invitrogen). 1 μl each of the remaining lysate was used for protein measurement.

[5] = tested on: experimental autoimmune encephalomyelitis (EAE)
[6] = tested on: Rat spinal cord (SC) motor neurons injured by glutamate; test: Spinal cord motor neurons injured by glutamate, survival by MAP-2 immunostaining; format: cell-based; conditions: 1 μM, glutamate 10 μM 20 min, 48 hours, p<0.05
Procedure: Protocol: Rat spinal cord (SC) motor neurons were cultured as described by Martinou (Neuron. 1992 April; 8(4):737-44) and Wang (PLoS Genet. 2013; 9(9)). Briefly, pregnant female rats of 14 days gestation were killed by cervical dislocation and foetuses were collected and immediately placed in ice-cold L15 Leibovitz medium. Spinal cord was treated for 20 min at 37° C. with a trypsin-EDTA. The dissociation was stopped by addition of Dulbecco's modified Eagle's medium (DMEM) with glucose (Pan Biotech), containing DNAse I and 10% fetal calf serum (FCS). Cells were mechanically dissociated and they were then centrifuged. The pellet was resuspended in a defined culture medium with 10 ng/ml of brain-derived neurotrophic factor (BDNF). The cells were seeded in 96-well plates precoated with poly-L-lysine and were cultured at 37°. The medium was changed every 2 days.
Briefly, on day 13 of culture, BDNF or test compound was pre-incubated with primary Spinal cord (SC) motor neurons for 1 hour before glutamate exposure. Glutamate was added to a final concentration of 10 μM diluted in control medium in presence of BDNF or test compound for 20 min. […]
For each condition 6 wells were assessed, 30 pictures per well were taken using ImageXpress (Molecular Device) with 20× magnification. […]

[7] = tested on: primary rat cortical neurons injured by glutamate; test: Primary cortical neurons injured by glutamate, survival by MTT; format: cell-based
Procedure: Protocol: Rat cortical neurons were cultured as described by Singer (J Neurosci. 1999 Apr. 1; 19(7):2455-63) and Callizot (J Neurosci Res. 2013 May; 91(5):706-16).
Foetuses were collected and immediately placed in ice-cold Leibovitz medium. Cortex was treated with a trypsin-EDTA solution and the dissociation was stopped by addition of Dulbecco's modified Eagle's medium (DMEM) with glucose (Pan Biotech), containing DNAse I and 10% fetal calf serum (FCS). Cells were mechanically dissociated and centrifuged. The pellet was resuspended in a defined culture medium with 10 ng/ml of brain-derived neurotrophic factor (BDNF). The cells were seeded in 96-well plates precoated with poly-L-lysine and were cultured at 37°. The medium was changed every 2 days. The cortical neurons were intoxicated with glutamate after 13 days of culture.
Briefly, on day 13 of culture, BDNF and test compound were pre-incubated with primary cortical neurons for 1 hour before glutamate exposure. Glutamate was added to a final concentration of 40 μM diluted in control medium in presence of BDNF or test compound for 20 min.
After 20 min, glutamate was washed out and fresh culture medium with BDNF or test compound was added for additional 48 hours. The survival evaluation was done by a MTT assay performed with CellTiter 96® Aqueous One Solution Cell Proliferation Assay (Promega).

[8] = target: T1, Human recombinant monoamine oxidase MAO-B (Homo sapiens, UniProt P27338); test: MAO-B inhibition, kynuramine fluorescence assay; format: biochemical
T1 construct: purchased Sigma Aldrich M7441
T1 sequence (P27338 1-520): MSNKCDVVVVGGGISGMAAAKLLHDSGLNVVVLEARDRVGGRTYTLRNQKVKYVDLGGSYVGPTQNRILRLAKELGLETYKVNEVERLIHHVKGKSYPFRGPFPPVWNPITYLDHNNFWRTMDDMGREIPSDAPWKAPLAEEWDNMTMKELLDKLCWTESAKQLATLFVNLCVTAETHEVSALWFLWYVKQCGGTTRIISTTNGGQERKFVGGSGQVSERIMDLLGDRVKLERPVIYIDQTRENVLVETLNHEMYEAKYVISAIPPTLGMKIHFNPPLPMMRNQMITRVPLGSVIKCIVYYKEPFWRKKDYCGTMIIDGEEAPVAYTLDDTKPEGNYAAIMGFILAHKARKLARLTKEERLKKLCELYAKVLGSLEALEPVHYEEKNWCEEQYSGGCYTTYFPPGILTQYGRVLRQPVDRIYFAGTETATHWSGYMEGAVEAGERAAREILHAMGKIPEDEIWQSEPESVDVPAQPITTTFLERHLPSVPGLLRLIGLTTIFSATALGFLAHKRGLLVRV
Source text: (§1) Protocol: Human recombinant monoamine oxidase proteins MAO-A and MAO-B were purchased from Sigma Aldrich (Reference M7316 and M7441 respectively). In order to monitor the MAO enzymatic activities and their inhibition rate a fluorescence based assay was used. The substrate for the assay, kynuramine, is non-fluorescent until undergoing oxidative deamination by MAOs resulting in the fluorescent product 4-hydroxyquinoline. Kynuramine is a substrate for both MAO-A and -B (non-specific substrate). Clorgiline and Deprenyl (Sigma Aldrich) were used as controls for specific inhibition of MAO-A and MAO-B respectively.

[9] = Pharmacokinetic profile and brain distribution after single oral and intravenous dose; format: in vivo, male C57 BL/6 mice
Procedure: Protocol: Pharmacokinetic parameters and brain distribution of 5-(4-(2-(5-(1-hydroxyethyl)pyridine-2-yl)ethoxy)benzyl)thiazolidine-2,4-dione (racemate or stereoisomers) following single oral (4.5 mg/kg) and intravenous (1 mg/kg) dose administration to male C57 BL/6 mice were determined. Blood samples and brain samples were collected pre-dosing and different times post dosing for both oral and i.v pharmacokinetics. All samples were processed for analysis by protein precipitation using acetonitrile and analyzed with fit-for-purpose LC/MS/MS method. The lower limit of quantification (LLOQ) in plasma and brain for 5-(4-(2-(5-(1-hydroxyethyl)pyridine-2-yl)ethoxy)benzyl)thiazolidine-2,4-dione (1) is 0.99 ng/mL. Pharmacokinetic parameters were calculated using the non-compartmental analysis tool of Phoenix WinNonlin.

[10] = target: T2, Human recombinant monoamine oxidase MAO-A (Homo sapiens, UniProt P21397); test: MAO-A inhibition, kynuramine fluorescence assay; format: biochemical
T2 construct: purchased Sigma Aldrich M7316
T2 sequence (P21397 1-527): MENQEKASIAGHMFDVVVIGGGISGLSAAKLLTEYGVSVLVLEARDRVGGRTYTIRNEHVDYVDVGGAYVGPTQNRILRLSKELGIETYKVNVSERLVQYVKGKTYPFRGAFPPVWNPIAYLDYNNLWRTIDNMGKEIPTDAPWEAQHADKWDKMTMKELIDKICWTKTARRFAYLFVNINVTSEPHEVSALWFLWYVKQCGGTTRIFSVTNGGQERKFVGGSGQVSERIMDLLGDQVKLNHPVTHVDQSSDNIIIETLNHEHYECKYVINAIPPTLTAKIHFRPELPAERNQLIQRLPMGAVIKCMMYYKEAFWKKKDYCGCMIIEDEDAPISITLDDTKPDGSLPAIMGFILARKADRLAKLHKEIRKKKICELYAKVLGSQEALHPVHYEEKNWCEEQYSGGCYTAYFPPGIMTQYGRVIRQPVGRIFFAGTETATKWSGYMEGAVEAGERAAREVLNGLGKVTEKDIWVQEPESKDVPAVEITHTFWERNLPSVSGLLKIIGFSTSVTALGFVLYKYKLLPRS
Source text: as §1

Kp [1]: 0.08
Kp ([2]; brain and plasma): 0.09
Molecule: CCc1ccc(CCOc2ccc(CC3SC(=O)NC3=O)cc2)nc1 (stereo not shown) [Pioglitazone, reference compound]

Kp ([2]; brain and plasma): 0.07
Molecule: CC(=O)c1ccc(CCOc2ccc(CC3SC(=O)NC3=O)cc2)nc1 (stereo not shown) [MIII, 5-(4-(2-(5-acetyl-2-pyridyl)ethoxy)benzyl)-2,4-thiazolidinedione]
pharmacological activity relative to Pioglitazone [3]: less active than Pioglitazone

Molecule: CCc1ccc(C(O)COc2ccc(CC3SC(=O)NC3=O)cc2)nc1 (stereo not shown) [MII]
Kp ([2]; in vivo): 0.01
pharmacological activity relative to Pioglitazone [3]: less active than Pioglitazone

Molecule: CC(O)c1ccc(CCOc2ccc(CC3SC(=O)NC3=O)cc2)nc1 (racemic) [compound (1), 5-[4-[2-(5-(1-hydroxyethyl)-2-pyridinyl)ethoxy]benzyl]-2,4-thiazolidinedione]
Kp [1]: 0.12
increase in cell survival [4]: 20%
development and severity of EAE (clinical scores) ([5]; bid from day 5 post immunization for 15 days, three increasing doses): reduces the development and severity
body weight loss associated to treatment ([5]; mouse, in vivo): No body weight loss
hematological toxicity associated to treatment ([5]; mouse, in vivo): no significant hematological toxicity
effect on cell survival vs the control with glutamate [6]: protective effect
protective effect on glutamate injury (survival, MTT) ([7]; 3 μM, glutamate 40 μM 20 min, 48 hours): full protective effect
IC50 [8]: 70.5 nM
Kp ([2]; brain and plasma): 0.13
brain concentrations observed until ([9]; both intravenous and oral profiles): 8 h
Kp ([9]; male, mouse, brain and plasma, C57BL/6 mice, single oral 4.5 mg/kg / i.v. 1 mg/kg, read-out: brain-to-plasma exposure (AUClast) ratio): 0.12
bioavailability ([9]; male, mouse, plasma, oral 4.5 mg/kg vs i.v. 1 mg/kg, C57BL/6 mice): 85%
clearance ([9]; male, mouse, plasma, single intravenous 1 mg/kg, C57BL/6 mice, read-out: systemic plasma clearance): 11.8 mL/min/kg
half-life ([9]; male, mouse, plasma, single intravenous 1 mg/kg, C57BL/6 mice, read-out: terminal elimination plasma half-life (converted)): 107 min
Tmax ([9]; male, mouse, plasma, single oral 4.5 mg/kg, C57BL/6 mice, read-out: Tmax in plasma): 30 min
Tmax ([9]; male, mouse, C57BL/6 mice, brain, read-out: Tmax in brain): 30 min
plasma concentrations observed until ([9]; single oral 4.5 mg/kg, 1 animal): 24 h
inhibition of MAO A protein [10]: did not inhibit

B1: BDNF: brain-derived neurotrophic factor, reference compound (protein, UniProt P23560 19-247, looked up)
Neurotrophic factor BDNF …: APMKEANIRGQGGLAYPGVRTHGTLESVNGPKAGSRGLTSLADTFEHVIEELLDEDQKVRPNEENNKDADLYTSRVMLSSQVPLEPPLLFLLEEYKNYLDAANMSMRVRRHSDPARRGELSVCDSISEWVTAADKKTAVDMSGGTVTVLEKVPVSKGQLKQYFYETKCNPMGYTKEGCRGIDKRHWNSQCRTTQSYVRALTMDSKKRIGWRFIRIDTSCVCTLTIKRGR
protective effect on glutamate injury (survival, MTT) ([7]; 50 ng/ml, reference compound): full protective effect
